In the NIST ThermoML archive (doi:10.1021/je700339f):

Experiment: xn = mol fraction of the nth substance listed
Settings: 298.15 K, Liquid

ClCCCl [1,2-dichloroethane] + CN(C)C=O
mass density [kg/m3]
Settings | x2 = 0.0805 | x2 = 0.1978 | x2 = 0.302 | x2 = 0.397 | x2 = 0.4988 | x2 = 0.6023 | x2 = 0.7054 | x2 = 0.8005 | x2 = 0.9071
100 kPa | 1221.2 | 1186.2 | 1154.9 | 1126.5 | 1095.7 | 1064.5 | 1033.6 | 1005.2 | 972.8
500 kPa | 1221.5 | 1186.6 | 1155.2 | 1126.8 | 1096 | 1064.8 | 1033.9 | 1005.5 | 973.1
1000 kPa | 1222 | 1187 | 1155.7 | 1127.2 | 1096.4 | 1062.2 | 1034.3 | 1005.8 | 973.3
1500 kPa | 1222.5 | 1187.5 | 1156.2 | 1127.6 | 1096.8 | 1065.6 | 1034.7 | 1006.2 | 973.7
2000 kPa | 1223 | 1188 | 1156.6 | 1128 | 1097.2 | 1065.9 | 1035 | 1006.5 | 974
2500 kPa | 1223.4 | 1188.4 | 1156.9 | 1128.4 | 1097.6 | 1066.4 | 1035.4 | 1006.9 | 974.3
3000 kPa | 1223.9 | 1188.8 | 1157.4 | 1128.8 | 1098 | 1066.7 | 1035.7 | 1007.2 | 974.6
3500 kPa | 1224.3 | 1189.3 | 1157.8 | 1129.3 | 1098.3 | 1067 | 1036.1 | 1007.6 | 974.9
4000 kPa | 1224.8 | 1189.7 | 1158.2 | 1129.6 | 1098.7 | 1067.4 | 1036.4 | 1007.9 | 975.2
4500 kPa | 1225.3 | 1190.1 | 1158.6 | 1130.1 | 1099.2 | 1067.8 | 1036.7 | 1008.2 | 975.5
5000 kPa | 1225.8 | 1190.6 | 1159.1 | 1130.4 | 1099.5 | 1068.2 | 1037.1 | 1008.5 | 975.9
5500 kPa | 1226.3 | 1191 | 1159.5 | 1130.9 | 1099.8 | 1068.5 | 1037.4 | 1008.9 | 976.2
6000 kPa | 1226.7 | 1191.5 | 1159.9 | 1131.4 | 1100.2 | 1068.8 | 1037.7 | 1009.2 | 976.5
6500 kPa | 1227.1 | 1191.9 | 1160.3 | 1131.6 | 1100.6 | 1069.3 | 1038.1 | 1009.5 | 976.8
7000 kPa | 1227.6 | 1192.3 | 1160.8 | 1132.1 | 1101 | 1069.6 | 1038.5 | 1009.8 | 977.1
7500 kPa | 1228 | 1192.7 | 1161.2 | 1132.5 | 1101.4 | 1070 | 1038.8 | 1010.2 | 977.4
8000 kPa | 1228.5 | 1193.2 | 1161.6 | 1132.8 | 1101.8 | 1070.3 | 1039.2 | 1010.5 | 977.8
8500 kPa | 1228.9 | 1193.7 | 1161.9 | 1133.2 | 1102.1 | 1070.7 | 1039.5 | 1010.8 | 978.2
9000 kPa | 1229.3 | 1194 | 1162.4 | 1133.7 | 1102.5 | 1071.1 | 1039.9 | 1011.2 | 978.4
9500 kPa | 1229.8 | 1194.5 | 1162.8 | 1134 | 1102.9 | 1071.4 | 1040.2 | 1011.5 | 978.7
9900 kPa | – | – | – | – | – | – | – | 1011.8 | –
10000 kPa | 1230.4 | 1195 | 1163.2 | 1134.5 | 1103.3 | 1071.8 | 1040.6 | – | 979.1
10500 kPa | 1230.8 | 1195.4 | 1163.6 | 1134.9 | 1103.7 | 1072.2 | 1040.9 | 1012.2 | 979.4
11000 kPa | 1231.2 | 1195.8 | 1164.1 | 1135.3 | 1104 | 1072.5 | 1041.2 | 1012.4 | 979.7
11400 kPa | – | – | 1164.4 | – | – | – | – | – | –
11500 kPa | 1231.7 | 1196.2 | – | 1135.7 | 1104.4 | 1072.9 | 1041.6 | 1012.8 | 980
11900 kPa | – | – | – | 1136 | – | – | 1041.9 | – | –
12000 kPa | 1232.2 | 1196.7 | 1164.9 | – | 1104.8 | 1073.2 | – | 1013.2 | 980.3
12400 kPa | – | – | 1165.2 | – | – | – | 1042.2 | – | 980.5
12500 kPa | 1232.6 | 1197.1 | – | 1136.5 | 1105.2 | 1073.5 | – | 1013.5 | –
12900 kPa | – | – | – | 1136.8 | – | – | – | – | –
13000 kPa | 1233.1 | 1197.4 | 1165.6 | – | 1105.6 | 1073.9 | 1042.6 | 1013.8 | 980.9
13400 kPa | 1233.4 | – | – | – | – | – | – | – | –
13500 kPa | – | 1197.9 | 1166 | 1137.3 | 1105.9 | 1074.2 | 1042.9 | 1014.1 | 981.2
13900 kPa | – | – | – | – | – | 1074.6 | – | – | –
14000 kPa | 1233.9 | 1198.3 | 1166.4 | 1137.6 | 1106.2 | – | 1043.2 | 1014.4 | 981.5
14500 kPa | 1234.3 | 1198.8 | 1166.8 | 1137.9 | 1106.6 | 1074.9 | 1043.5 | 1014.7 | 981.8
14900 kPa | – | – | – | 1138.2 | – | – | 1043.8 | – | –
15000 kPa | 1234.7 | 1199.1 | 1167.2 | – | 1107 | 1075.2 | – | 1015 | 982.1
15400 kPa | – | – | – | – | – | – | – | – | 982.3
15500 kPa | 1235.2 | 1199.6 | 1167.6 | 1138.7 | 1107.3 | 1075.6 | 1044.2 | 1015.3 | –
15900 kPa | – | 1199.9 | – | – | – | – | – | – | –
16000 kPa | 1235.6 | – | 1168 | 1139 | 1107.7 | 1075.9 | 1044.5 | 1015.7 | 982.6
16400 kPa | – | 1200.3 | – | – | – | – | – | 1015.9 | –
16500 kPa | 1236 | – | 1168.4 | 1139.4 | 1108 | 1076.2 | 1044.8 | – | 983
16900 kPa | – | – | – | 1139.7 | – | – | – | – | –
17000 kPa | 1236.4 | 1200.7 | 1168.7 | – | 1108.4 | 1076.6 | 1045.1 | 1016.3 | 983.2
17500 kPa | 1236.8 | 1201.1 | 1169.1 | 1140.1 | 1108.7 | 1076.9 | 1045.4 | 1016.6 | 983.5
17900 kPa | – | – | – | – | – | – | – | 1016.9 | –
18000 kPa | 1237.2 | 1201.5 | 1169.5 | 1140.5 | 1109 | 1077.3 | 1045.7 | – | 983.8
18400 kPa | – | – | – | – | – | 1077.6 | – | – | –
18500 kPa | 1237.7 | 1201.9 | 1169.9 | 1140.8 | 1109.4 | – | 1046.1 | 1017.2 | 984.1
19000 kPa | 1238.2 | 1202.4 | 1170.2 | 1141.2 | 1109.9 | 1078 | 1046.4 | 1017.5 | 984.4
19500 kPa | 1238.6 | 1202.7 | 1170.6 | 1141.6 | 1110.2 | 1078.3 | 1046.7 | 1017.8 | 984.7
20000 kPa | 1239 | 1203.1 | 1171.1 | 1142.1 | 1110.6 | 1078.6 | 1047.08 | 1018.2 | 985.1
